Patent publication US11701372B2, “Inhalation formulations of 1'-cyano substituted carba-nucleoside analogs” (priority 2020, dated 2023)
Where two headings read alike, the source gives them in different places.

Assay type: physicochemical
Details: for % assay/degs / Total degs / pH: T = 0
Description: For each condition, samples were staged at ambient and refrigerated conditions. Samples were analyzed for % assay/degs, appearance, reconstitution time, pH, and compared to T=0. The structures of the key impurities/metabolites are shown below.

## CCC(CC)COC(=O)[C@H](C)N[P@](=O)(OC[C@H]1O[C@@](C#N)(c2ccc3c(N)ncnn23)[C@H](O)[C@@H]1O)Oc1ccccc1 [Formula Ia, (S)-2-ethylbutyl 2-(((S)-(((2R,3S,4R,5R)-5-(4-aminopyrrolo[2,1-f][1,2,4]triazin-7-yl)-5-cyano-3,4-dihydroxytetrahydrofuran-2-yl)methoxy)(phenoxy)phosphoryl)amino)propanoate]
pH 1.8, 2-8° C., 2 h
  % assay/degs, difference from T = 0: 0.0%
  Total degs, difference from T = 0: 0.0%
  pH, difference from T = 0: 0.0
pH 1.8, 2-8° C., 3 h
  % assay/degs, difference from T = 0: −0.2%
  Total degs, difference from T = 0: 0.0%
  pH, difference from T = 0: 0.0
pH 1.8, 2-8° C., 8 h
  % assay/degs, difference from T = 0: −0.2%
  Total degs, difference from T = 0: 0.1%
  pH, difference from T = 0: 0.0
pH 1.8, 2-8° C., 24 h
  % assay/degs, difference from T = 0: −0.5%
  Total degs, difference from T = 0: 0.2%
  pH, difference from T = 0: 0.0
pH 1.8, 2-8° C., 48 h
  % assay/degs, difference from T = 0: −0.2%
  Total degs, difference from T = 0: 0.4%
  pH, difference from T = 0: 0.0
pH 1.8, Ambient, 1 h
  % assay/degs, difference from T = 0: −0.3%
  Total degs, difference from T = 0: 0.0%
  pH, difference from T = 0: 0.0
pH 1.8, Ambient, 2 h
  % assay/degs, difference from T = 0: −0.1%
  Total degs, difference from T = 0: 0.1%
  pH, difference from T = 0: 0.0
pH 1.8, Ambient, 3 h
  % assay/degs, difference from T = 0: −0.3%
  Total degs, difference from T = 0: 0.1%
  pH, difference from T = 0: 0.0
pH 1.8, Ambient, 8 h
  % assay/degs, difference from T = 0: −0.4%
  Total degs, difference from T = 0: 0.4%
  pH, difference from T = 0: 0.0
pH 1.8, Ambient, 24 h
  % assay/degs, difference from T = 0: −1.3%
  Total degs, difference from T = 0: 1.2%
  pH, difference from T = 0: 0.0
pH 1.8, Ambient, 48 h
  % assay/degs, difference from T = 0: −3.5%
  Total degs, difference from T = 0: 2.4%
  pH, difference from T = 0: 0.0
pH 1.8
  % assay/degs: 99.4%
  Total degs: 0.2%
  pH: 1.8
pH 2.0, 2-8° C., 2 h
  % assay/degs, difference from T = 0: 0.6%
  Total degs, difference from T = 0: 0.0%
  pH, difference from T = 0: 0.0
pH 2.0, 2-8° C., 3 h
  % assay/degs, difference from T = 0: 0.2%
  Total degs, difference from T = 0: 0.0%
  pH, difference from T = 0: 0.0
pH 2.0, 2-8° C., 8 h
  % assay/degs, difference from T = 0: −0.1%
  Total degs, difference from T = 0: 0.1%
  pH, difference from T = 0: 0.0
pH 2.0, 2-8° C., 24 h
  % assay/degs, difference from T = 0: 0.2%
  Total degs, difference from T = 0: 0.1%
  pH, difference from T = 0: 0.0
pH 2.0, 2-8° C., 48 h
  % assay/degs, difference from T = 0: −0.5%
  Total degs, difference from T = 0: 0.3%
  pH, difference from T = 0: 0.0
pH 2.0, Ambient, 1 h
  % assay/degs, difference from T = 0: 0.1%
  Total degs, difference from T = 0: 0.0%
  pH, difference from T = 0: 0.0
pH 2.0, Ambient, 2 h
  % assay/degs, difference from T = 0: −0.2%
  Total degs, difference from T = 0: 0.1%
  pH, difference from T = 0: 0.0
pH 2.0, Ambient, 3 h
  % assay/degs, difference from T = 0: 0.3%
  Total degs, difference from T = 0: 0.1%
  pH, difference from T = 0: 0.0
pH 2.0, Ambient, 8 h
  % assay/degs, difference from T = 0: −0.2%
  Total degs, difference from T = 0: 0.2%
  pH, difference from T = 0: 0.0
pH 2.0, Ambient, 24 h
  % assay/degs, difference from T = 0: −0.6%
  Total degs, difference from T = 0: 0.8%
  pH, difference from T = 0: 0.0
pH 2.0, Ambient, 48 h
  % assay/degs, difference from T = 0: −1.8%
  Total degs, difference from T = 0: 1.6%
  pH, difference from T = 0: 0.0
pH 2.0
  % assay/degs: 99.2%
  Total degs: 0.2%
  pH: 2.0
pH 3.5, 2-8° C., 2 h
  % assay/degs, difference from T = 0: 0.6%
  Total degs, difference from T = 0: 0.0%
  pH, difference from T = 0: 0.0
pH 3.5, 2-8° C., 8 h
  % assay/degs, difference from T = 0: 0.3%
  Total degs, difference from T = 0: 0.0%
  pH, difference from T = 0: 0.0
pH 3.5, 2-8° C., 24 h
  % assay/degs, difference from T = 0: 0.7%
  Total degs, difference from T = 0: 0.0%
  pH, difference from T = 0: −0.1
pH 3.5, 2-8° C., 48 h
  % assay/degs, difference from T = 0: 0.5%
  Total degs, difference from T = 0: 0.0%
  pH, difference from T = 0: 0.0
pH 3.5, 2-8° C., 72 h
  % assay/degs, difference from T = 0: 0.7%
  Total degs, difference from T = 0: 0.0%
  pH, difference from T = 0: −0.1
pH 3.5, 2-8° C., 96 h
  % assay/degs, difference from T = 0: 0.2%
  Total degs, difference from T = 0: 0.0%
  pH, difference from T = 0: 0.0
pH 3.5, 2-8° C., 168 h
  % assay/degs, difference from T = 0: 0.6%
  Total degs, difference from T = 0: 0.0%
  pH, difference from T = 0: 0.0
pH 3.5, Ambient, 2 h
  % assay/degs, difference from T = 0: 0.6%
  Total degs, difference from T = 0: 0.0%
